Data from patent EP4707280A1, “1,4-CINEOLE DERIVATIVE AND INTERMEDIATE THEREOF, HERBICIDE CONTAINING SAID DERIVATIVE AS ACTIVE INGREDIENT, METHOD FOR USING HERBICIDE, AND METHOD FOR PREPARING AGROCHEMICAL COMPOSITION” (HOKKO CHEMICAL INDUSTRY CO., LTD., priority 2023, dated 2024).

What was measured:
Format in all cases: in vivo
[1] = test system: Echinochloa crus-galli var. formosensis at the three-leaf stage; assay: Comparative Example: herbicidal effect test by application during growth period of paddy rice (three-leaf stage, Table 7); details: active ingredient 7.5 g per 10 ares, emulsifiable concentrate applied by dropper to flooded pots, 21 days after chemical application, triplicate; for inhibition at 75 g/ha: 504 h, read-out: Weed inhibition rate (%)
Description: As an example, the herbicidal effect on Echinochloa crus-galli var. formosensis at the three-leaf stage was confirmed by the following method, and the results are specifically shown in Table 7 as a comparative example.
Wagner pots with an area of […] were filled with paddy soil, followed by addition of water and incorporation of chemical fertilizer (N:P:K = 16:16:16), after which puddling was performed. After that, 30 seeds of Echinochloa crus-galli var. formosensis were sown at a depth of 0 cm to 1 cm. Immediately after sowing, the pots were flooded and a water depth of approximately 3 cm was maintained. Subsequent management was conducted in a glass greenhouse. When Echinochloa crus-galli var. formosensis reached the three-leaf stage, an emulsifiable concentrate prepared according to Formulation Example 5 using the compound shown below was diluted with water, and a specified amount of the diluted solution was applied by dropper. The amount of the active ingredient to be applied was equivalent to 7.5 g per 10 ares. The test was conducted in triplicate for each chemical concentration group, and the weed inhibition rate (%) was determined 21 days after chemical application using the following formula (Math. 1).

[2] = test system: Monochoria vaginalis; assay: Test Example 1: herbicidal effect test by soil application in paddy rice; details: Pontederia vaginalis, soil, 336 h; 120 g active ingredient per 10 ares; applied immediately after sowing, flooded pots; 14 days after application; read-out: weed inhibition rate
Description: (§1) Wagner pots with an area of […] were filled with paddy soil, followed by addition of water and incorporation of chemical fertilizer (N:P:K = 16:16:16), after which puddling was performed. After that, seeds of Echinochloa crus-galli var. formosensis, broad-leaved weeds (Lindernia pyxidaria and Monochoria vaginalis), and Scirpus juncoides were sown at a depth of 0 cm to 1 cm, 30 seeds each. Immediately after sowing, the pots were flooded and a water depth of approximately 3 cm was maintained. Subsequent management was conducted in a glass greenhouse. Immediately thereafter, an emulsifiable concentrate prepared according to Formulation Example 5 using the compound shown below was diluted with water, and a specified amount of the diluted solution was applied by dropper. The amount of the active ingredient to be applied was equivalent to 120 g per 10 ares.
(§2) The present test was conducted in duplicate for each chemical concentration group, and the weed inhibition rate (%) was determined 14 days after chemical application using the following formula (Math. 1). [formula]

[3] = test system: Lindernia pyxidaria; assay: as above; details: 336 h, 120 g active ingredient per 10 ares, applied immediately after sowing, flooded pots, 14 days after application, read-out: weed inhibition rate
Description: as §1, §2

[4] = test system: Echinochloa crus-galli var. formosensis; assay: as above; details: Echinochloa crus-galli, soil, 336 h; 120 g active ingredient per 10 ares; applied immediately after sowing, flooded pots; 14 days after application; read-out: weed inhibition rate
Outline: (§3)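 Flooded-pot paddy assay: sow at 0–1 cm, flood to about 3 cm, then apply diluted emulsifiable concentrate by dropper, 120 g a.i. per 10 ares; greenhouse-grown.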

[5] = test system: Scirpus juncoides; assay: as above; details: Schoenoplectiella juncoides, soil, 336 h; 120 g active ingredient per 10 ares; applied immediately after sowing, flooded pots; 14 days after application; read-out: weed inhibition rate
Outline: as §3

[6] = test system: Echinochloa crus-galli; assay: Test Example 4: herbicidal effect test by stem and leaf treatment in upland field; details: Echinochloa crus-galli; 120 g per 10 ares; sprayed seven days after sowing, upland soil; 14 days after application; read-out: weed inhibition rate
[7] = test system: Echinochloa crus-galli; assay: Test Example 3: herbicidal effect test by soil application in upland field; details: Echinochloa crus-galli, 120 g per 10 ares, sprayed one day after sowing, 14 days after application, read-out: weed inhibition rate
Outline: (§4)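 Weed inhibition (%) was assessed 14 days after treatment, in duplicate per concentration group. Seeds had been mixed into the upper 1 cm of upland alluvial loam, and the soil surface was sprayed one day later with the diluted emulsifiable concentrate at 120 g active ingredient per 10 ares.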

[8] = test system: Chenopodium album; assay: Test Example 4: herbicidal effect test by stem and leaf treatment in upland field; details: 120 g per 10 ares, sprayed seven days after sowing, upland soil, 14 days after application, read-out: weed inhibition rate
[9] = test system: Digitaria ciliaris; assay: as above; details: Digitaria ciliaris; 120 g per 10 ares; sprayed seven days after sowing, upland soil; 14 days after application; read-out: weed inhibition rate
[10] = test system: Echinochloa crus-galli var. formosensis; assay: Test Example 2: herbicidal effect test by application during growth period of paddy rice; details: Echinochloa crus-galli; 120 g per 10 ares; applied seven days after sowing, flooded pots; 14 days after application; read-out: weed inhibition rate
Outline: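 Flooded paddy pot test, greenhouse. Seeds 30/species, 0–1 cm depth, water ~3 cm. EC diluted in water, dropper-applied 7 d post-sowing at 120 g a.i./10 a. Inhibition rate (%) read 14 d after treatment; n=2.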

[11] = test system: Echinochloa crus-galli; assay: Test Example 8: herbicidal effect test by stem and leaf treatment in upland field (low dose); details: Echinochloa crus-galli; 7.5 g per 10 ares; sprayed seven days after sowing, upland soil; 14 days after application; read-out: weed inhibition rate
[12] = test system: Echinochloa crus-galli var. formosensis; assay: Test Example 6: herbicidal effect test by application during growth period of paddy rice (low dose); details: Echinochloa crus-galli; 7.5 g per 10 ares; applied seven days after sowing, flooded pots; 14 days after application; read-out: weed inhibition rate
Outline: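 Emulsifiable concentrate, water-diluted, dropped onto flooded paddy pots 7 days post-sowing at 7.5 g active ingredient/10 a. Greenhouse-grown weeds; percent inhibition scored at day 14 after treatment.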

[13] = test system: Amaranthus viridis; assay: Test Example 3: herbicidal effect test by soil application in upland field; details: Amaranthus viridis, 120 g per 10 ares, sprayed one day after sowing, 14 days after application, read-out: weed inhibition rate
Outline: as §4

[14] = test system: Digitaria ciliaris; assay: as above; details: Digitaria ciliaris, 120 g per 10 ares, sprayed one day after sowing, 14 days after application, read-out: weed inhibition rate
Outline: as §4

[15] = test system: Echinochloa crus-galli var. formosensis; assay: Test Example 5: herbicidal effect test by soil application in paddy rice (low dose); details: Echinochloa crus-galli, soil, 336 h; 7.5 g per 10 ares; applied immediately after sowing, flooded pots; 14 days after application; read-out: weed inhibition rate
Outline: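 Pre-emergence paddy test: seeds sown 0–1 cm (30 each), pots flooded ~3 cm, greenhouse. EC dilution dropped into water right after sowing, 7.5 g a.i./10 a. Duplicate pots; weed inhibition rate (%) by formula, day 14.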

[16] = test system: Echinochloa crus-galli; assay: Test Example 7: herbicidal effect test by soil application in upland field (low dose); details: Echinochloa crus-galli, 7.5 g per 10 ares, sprayed one day after sowing, 14 days after application, read-out: weed inhibition rate
Outline: (§5)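 Read-out: weed inhibition rate (%) at 14 d post-treatment, duplicate pots per concentration. Seeds sown in the top 1 cm of upland alluvial loam; emulsifiable concentrate diluted in water and sprayed on the soil surface 1 d after sowing at 7.5 g a.i./10 a (100 L/10 a spray volume).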

[17] = test system: Digitaria ciliaris; assay: as above; details: Digitaria ciliaris, 7.5 g per 10 ares, sprayed one day after sowing, 14 days after application, read-out: weed inhibition rate
Outline: as §5

[18] = test system: Amaranthus viridis; assay: as above; details: 7.5 g per 10 ares, sprayed one day after sowing, upland soil, 14 days after application, read-out: weed inhibition rate
[19] = test system: Chenopodium album; assay: Test Example 3: herbicidal effect test by soil application in upland field; details: 120 g per 10 ares, sprayed one day after sowing, 14 days after application, read-out: weed inhibition rate
Outline: as §4

[20] = test system: Scirpus juncoides; assay: Test Example 5: herbicidal effect test by soil application in paddy rice (low dose); details: Schoenoplectiella juncoides, 336 h, 7.5 g per 10 ares, applied immediately after sowing, flooded pots, 14 days after application, read-out: weed inhibition rate
Description: as §2
as §1, with “(Monochoria” for “(Lindernia pyxidaria and Monochoria”, “7.5” for “120”
The present test was conducted in duplicate for each chemical concentration group, and the herbicidal effect was evaluated 14 days after chemical application using the same criteria as in Test Example 1.

Row | SMILES | pest or weed control at 1200 g/ha [4] | pest or weed control at 1200 g/ha [5] | inhibition at 1200 g/ha [6] | inhibition at 1200 g/ha [7] | inhibition at 1200 g/ha [9] | inhibition at 1200 g/ha [10] | inhibition at 75 g/ha [11] | inhibition at 1200 g/ha [13] | inhibition at 1200 g/ha [14] | inhibition at 75 g/ha [15] | inhibition at 75 g/ha [16] | inhibition at 75 g/ha [18] | inhibition at 75 g/ha [1] | further results
1 | C=C1C(OCc2ccccc2C)C2(C)CCC1(C(C)C)O2 (centres unmarked) | – | – | – | – | – | – | – | – | – | – | – | – | – | Weed inhibition rate (%) [1]: 20%
2 | CC(C)[C@]12C[C@@H](OCc3ccccc3F)[C@](C)(CC1c1ccc(F)cc1)O2 (stereo partly drawn) [1-924, (1S,2R,4R)-2-((2-fluorobenzyl)oxy)-5-(4-fluorophenyl)-4-isopropyl-1-methyl-7-oxabicyclo[2.2.1]heptane] | ≥ 80% | ≥ 80% | ≥ 80% | ≥ 80% | ≥ 80% | ≥ 80% | – | – | – | – | – | – | – | pest or weed control at 1200 g/ha [2]: ≥ 80%; pest or weed control at 1200 g/ha [3]: ≥ 80%; inhibition at 1200 g/ha [8]: ≥ 80%
3 | CC(C)[C@]12C[C@@H](OCc3ccccc3F)[C@](C)(C[C@H]1O)O2 [1-68, (1R,2R,4S,5R)-5-[(2-fluorophenyl)methoxy]-4-methyl-1-isopropyl-7-oxabicyclo[2.2.1]heptan-2-ol] | ≥ 80% | – | ≥ 80% | ≥ 80% | – | ≥ 80% | ≥ 80% | ≥ 80% | ≥ 80% | ≥ 80% | ≥ 80% | ≥ 80% | – | inhibition at 75 g/ha [12]: ≥ 80%; inhibition at 75 g/ha [17]: ≥ 80%
4 | CC(C)[C@]12C[C@@H](OCc3ccccc3C(F)(F)F)[C@](C)(CC1=O)O2 [2-29, (1R,4S,5R)-1-isopropyl-4-methyl-5-((2-(trifluoromethyl)benzyl)oxy)-7-oxabicyclo[2.2.1]heptan-2-one] | ≥ 80% | ≥ 80% | ≥ 80% | ≥ 80% | ≥ 80% | ≥ 80% | ≥ 80% | ≥ 80% | ≥ 80% | ≥ 80% | ≥ 80% | ≥ 80% | – | inhibition at 1200 g/ha [19]: ≥ 80%; inhibition at 75 g/ha [20]: ≥ 80%
5 | CC(C)[C@]12C[C@@H](OCc3ccccc3F)[C@](C)(C[C@@H]1C)O2 [1-93, (1S,2R,4R,5S)-2-[(2-fluorophenyl)methoxy]-1,5-dimethyl-4-isopropyl-7-oxabicyclo[2.2.1]heptane] | ≥ 80% | – | ≥ 80% | ≥ 80% | ≥ 80% | ≥ 80% | – | – | ≥ 80% | – | – | – | 100% | –
6 | Cc1ccccc1COC1CC2(C(C)C)CCC1(C)O2 (centres unmarked) | – | – | – | – | – | – | – | – | – | – | – | – | 73% | –
